Laboratory results: PubChem BioAssay AID1648 (Sanford-Burnham Center for Chemical Genomics, 2009)
The source made the active and inactive calls. How the calls were made is not given here.

The compounds below were run against Serine/threonine-protein kinase mTOR (Homo sapiens) (UniProt P42345) (assay: mTOR FRB domain ligand binding – biophysical, NMR (AID 1648)). Details: NMR binding to FRB domain, chemical shift.
Chain of Serine/threonine-protein kinase mTOR (Homo sapiens) (P42345 2015-2114): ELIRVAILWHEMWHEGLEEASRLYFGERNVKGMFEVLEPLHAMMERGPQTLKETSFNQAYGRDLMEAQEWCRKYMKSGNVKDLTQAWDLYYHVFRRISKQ
For `CCOC(=O)c1c[nH]c2c(F)cccc2c1=O`, the Kd was > 4 mM (inactive). In the case of `Cc1cc(C(F)(F)F)nn1CC(N)=O`, the Kd was > 4 mM (inactive). With `CC(=O)Nc1cc(O)cc(O)c1` the Kd was > 4 mM (inactive). `NC(=O)CNC(=O)c1ccccc1` was tested, and the Kd was > 4 mM (inactive). For `Cc1ccc(NC(=O)C2CCCNC2=O)nc1` (stereo not drawn), the Kd was > 4 mM (inactive). `Cc1occc1C(=O)NCc1ccncc1` was tested, and the Kd was > 4 mM (inactive). With `COCc1c(CN)cnc(C)c1N` the Kd was > 4 mM (inactive). With `O=C1CSC(=Nc2ccccc2[N+](=O)[O-])N1` the Kd was > 4 mM (inactive). For `CC(=O)Nc1ccc(S(=O)(=O)N(C)C)cc1`, the Kd was > 4 mM (inactive). `CC(=O)O[C@@H]1CC2C(C)(C)C=CC(=O)[C@]2(C)C2CC[C@@]3(C)[C@H](c4ccoc4)OC(=O)C4OC43[C@@]21C` (stereo partly drawn) was tested, and the Kd was > 4 mM (inactive). `O=c1[nH]c(O)c(C=NCc2cccs2)c(=O)[nH]1` was tested, and the Kd was > 4 mM (inactive). In the case of `O=C(Nc1cccnc1)c1cnn2cccnc12`, the Kd was > 4 mM (inactive). `Cc1cc(=O)c2c(O)c(C)c(O)cc2o1` was tested, and the Kd was > 4 mM (inactive). For `CNC(=O)C1CC(=O)N(c2ccc(O)cc2)C1` (stereo not drawn), the Kd was > 4 mM (inactive). With `CC1=NN2C(=N)CC(=O)N=C2S1` the Kd was > 4 mM (inactive). For `NC1=NC(=O)/C(=C\c2cccc(C(=O)O)c2)S1`, the Kd was > 4 mM (inactive). `CC(=O)O[C@@H]1C=C[C@@]2(C)C(C[C@@H](OC(C)=O)[C@@]3(C)C4=CC(=O)O[C@@H](c5ccoc5)[C@]4(C)CCC23)C1(C)C` (stereo partly drawn) was tested, and the Kd was > 4 mM (inactive). `O=C(O)CCCCC1SCC2NC(=O)NC21` (stereo not drawn) was tested, and the Kd was > 4 mM (inactive). For `O=C1CC(=O)N(c2ccccc2)C(=O)N1`, the Kd was > 4 mM (inactive). In the case of `CC(C)C1COc2cc3oc(=O)ccc3cc2O1` (stereo not drawn), the Kd was > 4 mM (inactive). With `O=CN1CCN(C(=O)c2ccccc2Cl)CC1` the Kd was > 4 mM (inactive). For `O=C(O)c1cccnc1`, the Kd was > 4 mM (inactive). In the case of `CCC(C)C(=O)O[C@H]1[C@H](O)C2C(CN3CC(C)CCC3[C@@]2(C)O)C2C[C@]34O[C@]5(O)C(OC(=O)C(C)(O)C(C)O)CC[C@@]3(C)C5C(OC(C)=O)[C@@H](OC(C)=O)C4[C@@]21O` (stereo partly drawn), the Kd was > 4 mM (inactive). `COc1cc(OC)cc(-c2nc(N)n[nH]2)c1` was tested, and the Kd was > 4 mM (inactive). In the case of `Oc1ccc2c(c1)OCO2`, the Kd was > 4 mM (inactive). With `Nc1cccc(NC(=O)c2ccco2)c1` the Kd was > 4 mM (inactive). In the case of `OCC(O)Cc1ccc2c(c1)OCO2` (stereo not drawn), the Kd was > 4 mM (inactive). In the case of `Cn1c(NCC(=O)O)nc2c1c(=O)[nH]c(=O)n2C`, the Kd was > 4 mM (inactive). For `Cc1cc(C)n(-c2ccc(N)cc2)n1`, the Kd was > 4 mM (inactive). With `Cc1c(N=CN(C)C)c(=O)n(-c2ccccc2)n1C` the Kd was > 4 mM (inactive). For `CC(CCC(=O)O)[C@H]1CCC2C3C(C[C@H](O)[C@@]21C)[C@@]1(C)CC[C@@H](O)C[C@H]1C[C@H]3O` (stereo partly drawn), the Kd was > 4 mM (inactive). With `c1ccc(C[N+]23CCN(CC2)c2ccccc23)cc1` the Kd was > 4 mM (inactive). With `COc1ccc(Cc2nccc3cc(OC)c(OC)cc23)cc1OC` the Kd was > 4 mM (inactive). For `CCCc1cc(=O)[nH]c2nnc(SCC(C)=O)n12`, the Kd was > 4 mM (inactive). For `CC(C)(C)c1cc(CN)c(C(=O)O)o1`, the Kd was > 4 mM (inactive). In the case of `O=c1[nH]cnc2nn(-c3ccccc3)nc12`, the Kd was > 4 mM (inactive). With `O=C(CN1C(=O)c2cccc3cccc(c23)C1=O)NO` the Kd was > 4 mM (inactive). `O=c1[nH]cnc2nc[nH]c12` was tested, and the Kd was > 4 mM (inactive). In the case of `CSc1nnc(-c2ccccc2NC(C)=O)o1`, the Kd was > 4 mM (inactive). With `S=c1[nH]cnc2sccc12` the Kd was > 4 mM (inactive). For `Cc1ccc2[nH]c3nc(=S)[nH]nc3c2c1`, the Kd was > 4 mM (inactive). In the case of `CCn1cnc2sc(C(=O)O)c(C)c2c1=O`, the Kd was > 4 mM (inactive). For `C[C@H]1C(=O)O[C@@H]2CCN3CC=C(COC(=O)[C@](C)(O)[C@]1(C)O)[C@H]23`, the Kd was > 4 mM (inactive). `Nc1ccccc1C(=O)N1CCNC(=O)C1` was tested, and the Kd was > 4 mM (inactive). With `O=C(CC1CCCCC1)N1CCN(c2ccccn2)CC1` the Kd was > 4 mM (inactive). For `O=C(c1ccccc1)c1ccccc1C(=O)N1CCOCC1`, the Kd was > 4 mM (inactive). With `COc1cc(C)nc(N(CCO)CCO)n1` the Kd was > 4 mM (inactive). In the case of `NC(=O)c1ccc(N2C(=O)CCC2=O)cc1Cl`, the Kd was > 4 mM (inactive). With `OCCNc1nc2ccc(Cl)cc2[nH]1` the Kd was > 4 mM (inactive). `CC1CCN(C(=O)c2ccc3c(c2)OCCO3)CC1` was tested, and the Kd was > 4 mM (inactive). In the case of `COC(=O)c1cc(C)on1`, the Kd was > 4 mM (inactive). `NC1CN2CCC1CC2` (stereo not drawn) was tested, and the Kd was > 4 mM (inactive). With `NC(=O)c1oc2ccccc2c1N` the Kd was > 4 mM (inactive). `Cn1cnc2c(=S)[nH]c(=O)n(Cc3ccccc3)c21` was tested, and the Kd was > 4 mM (inactive). With `CC(=O)OC1CCC23C(=O)OC45CCC(C6=CC(=O)OC6)C4(C)CCC2C5CCC3(O)C1` (stereo not drawn) the Kd was > 4 mM (inactive). With `O=C(Cn1cnc2ccccc2c1=O)N1CCOCC1` the Kd was > 4 mM (inactive). In the case of `CC(=O)O[C@H]1C[C@@H](OC(C)=O)C(C)(C)C2C[C@@H](OC(C)=O)[C@]3(C)C(CC[C@@]4(C)[C@H](c5ccoc5)OC(=O)[C@H]5O[C@]543)[C@]21C` (stereo partly drawn), the Kd was > 4 mM (inactive). With `O=C(O)c1ccnn1-c1ccccc1` the Kd was > 4 mM (inactive).
